Laboratory results as given in US10688085B2, “Use of statin-based drug for treatment of EML4-ALK-positive non-small cell lung cancer progressing on ALK inhibitor” (University-Industry Foundation, Yonsei University, priority 2016, dated 2020).

Experiments:
[1] = test system: AKT and ERK; experiment: Immunoblot of lower and bypass signaling pathway of ALK, ceritinib-resistant cell line; type: cell-based; settings: cell line resistant to ceritinib
[2] = test system: cell line that has acquired resistance to crizotinib; experiment: Cell survival rate of cell line that has acquired resistance to crizotinib after ALK/EGFR inhibitor treatment; type: cell-based; settings: crizotinib-resistant H3122 cell line
Procedure: Subsequently, studies on the mechanism of acquiring resistance to an ALK inhibitor in the Experimental Examples were carried out by representatively using CR pool, CR #1, and CR #3.

[3] = test system: cell line resistant to the ALK inhibitor; experiment: Evaluation of antitumor efficacy of statin-based drugs; settings: cell line resistant to the ALK inhibitor versus parental
Source text: The results are illustrated in FIG. 4A.

[4] = test system: p21, cleaved PARP, and cleaved caspase 3; experiment: Western blot of p21 and apoptosis-related proteins, crizotinib-resistant cell lines; type: cell-based
[5] = test system: YAP; experiment: Western blot of YAP phosphorylation, crizotinib-resistant cell line; type: cell-based
Source text: YAP is accumulated in the nucleus to form a complex with TEAD when phosphorylation is suppressed, and is known as an oncogene which promotes the excessive proliferation of cancer cells and the metastasis of cancer by inducing the expression of a gene associated with cancer. In addition, YAP as a transcription factor has been reported to be involved even in the expression of EGFR and an EGFR ligand. Recently, it has been reported that the mevalonate pathway which is an important mechanism in cancer cell metabolism regulates YAP activity, and particularly, geranylgeranylation may directly affect YAP activity. […] The results are illustrated in FIG. 7. FIGS. 7A and 7B identify the expression pattern of YAP when GGPP and […] are treated, respectively through a western blot, and FIG. 7C illustrates whether YAP moves into the nucleus through an immunocytochemistry analysis.

[6] = test system: p21, cleaved caspase 3, PARP, YAP; experiment: Western blot of p21, cleaved caspase 3, PARP and YAP, ceritinib-resistant cell line; type: cell-based; settings: cell line resistant to ceritinib
[7] = test system: EGFR; experiment: Western blot of EGFR activity after verteporfin; type: cell-based; settings: cell line that has acquired resistance to an ALK inhibitor; pretreatment with verteporfin
Source text: The results are illustrated in FIG. 12.

[8] = test system: vimentin; experiment: Western blot of vimentin expression; type: cell-based; settings: cell lines resistant to an ALK inhibitor
Source text: The results are illustrated in FIG. 13.

[9] = test system: CR pool, CR #1, and CR #3 cell lines; experiment: Cell proliferation after adding mevalonate pathway byproducts to cerivastatin-treated cells; type: cell-based; settings: CR #1, CR #3, byproduct added after cerivastatin treatment
Source text: A statin-based drug is a suppressor of HMG-CoA reductase which is an enzyme converting 3-hydroxy-3-methylglutaryl coenzyme A (HMG-CoA) into mevalonic acid in the mevalonate pathway, and is known as a cholesterol-lowering agent, but is known to affect various intracellular signaling processes by suppressing the production of isoprenoids (Farnesyl pyrophosphate; […] GGPP) acting as a substrate for isoprenylation of a target protein among final byproducts of the mevalonate pathway in addition to cholesterol. Thus, after the present research team treated H3122 parental, CR pool, CR #1, and CR #3 cell lines with cerivastatin in order to see which one of the byproducts mediated by the mevalonate pathway is involved in acquiring resistance to an ALK inhibitor, the proliferation of cells was identified after mevalonate, GGPP, FPP, and squalene, which are byproducts of each step, were each added. The results are illustrated in FIG. 6A.

[10] = test system: H3122 CR pool cells; experiment: FDA approved drug library growth inhibition selection, resistant cells; type: cell-based; settings: 1 μM for 72 hours
[11] = test system: H3122 parental cells; experiment: FDA approved drug library growth inhibition selection, parental cells; type: cell-based; settings: 1 μM for 72 hours
[12] = added to cerivastatin-treated cells

With `Cc1cc(Nc2ncc(Cl)c(Nc3ccccc3S(=O)(=O)C(C)C)n2)c(OC(C)C)cc1C1CCNCC1` [ceritinib] the “activity of AKT” value [1] was “not suppressed”, the “activity of ERK” value [1] was “not suppressed” and the “proliferation of the cell line that had acquired resistance (cell survival rate)” value [2] was “not suppressed”.
In the case of `CC(C)c1nc(N(C)S(C)(=O)=O)nc(-c2ccc(F)cc2)c1/C=C/[C@@H](O)C[C@@H](O)CC(=O)O` [rosuvastatin], the antitumor efficacies [3] is reported as “specifically exhibited antitumor efficacies against a cell line resistant to the ALK inhibitor”.
With `COC(=O)[C@H](CC(C)C)NC(=O)c1ccc(NC[C@@H](N)CS)cc1-c1cccc2ccccc12` [GGTI-298] the “expression of cleaved PARP” value ([4]; western blot, agent alone) was “concentration dependently induced”, the “expression of cleaved caspase 3” value ([4]; western blot, agent alone) was “concentration dependently induced” and the “expression of p21” value ([4]; western blot, agent alone) was “concentration dependently induced”. For the same compound, the “phosphorylation of YAP” value ([5]; western blot, agent alone) was “increasing”, the “expression of PARP” value [6] was “concentration-dependently induced” and the “expression of p21” value [6] was “concentration-dependently induced”.
verteporfin was tested, and the “activity of EGFR” value [7] was “concentration-dependently suppressed” and the expression of vimentin [8] was “clearly decreased”.
`CC(C)=CCC/C(C)=C/CC/C(C)=C/CC/C=C(\C)CC/C=C(\C)CCC=C(C)C` [squalene] was tested, and the “proliferation of cells suppressed by cerivastatin” value (“proliferation of cells suppressed” for short) [9] was “did not have any effect”.
For `CC(=O)O[C@@]12CO[C@@H]1C[C@H](O)[C@@]1(C)C(=O)[C@H](O)C3=C(C)[C@@H](OC(=O)[C@H](O)[C@@H](NC(=O)OC(C)(C)C)c4ccccc4)C[C@@](O)([C@@H](OC(=O)c4ccccc4)[C@H]21)C3(C)C` [docetaxel], the growth of cells [10] was “suppressed the growth” and the growth of cells [11] was “suppressed the growth”.
In the case of `CC(C)=CCC/C(C)=C/CC/C(C)=C/CC/C(C)=C/COP(=O)(O)OP(=O)(O)O` [GGPP, Geranylgeranyl pyrophosphate], the “expression of cleaved PARP increased by cerivastatin” value [4, 12] is reported as “again decreased”, the “expression of cleaved caspase 3 increased by cerivastatin” value [4, 12] is reported as “again decreased” and the “expression of p21 increased by cerivastatin” value [4, 12] is reported as “again decreased”. For the same compound, the “phosphorylation of YAP” value ([5]; added together with cerivastatin) was “again reduced” and the “proliferation of cells suppressed” value [9] was “restored”.
In the case of `CC(C)c1c(C(=O)Nc2ccccc2)c(-c2ccccc2)c(-c2ccc(F)cc2)n1CC[C@@H](O)C[C@@H](O)CC(=O)O` [atorvastatin], the antitumor efficacies [3] is reported as “specifically exhibited antitumor efficacies against a cell line resistant to the ALK inhibitor”.
In the case of `CC(O)(CCO)CC(=O)O` (stereo not shown) [mevalonate], the “proliferation of cells suppressed” value [9] is reported as “restored”.
In the case of `CC(C)=CCC/C(C)=C/CC/C(C)=C/COP(=O)(O)OP(=O)(O)O` [FPP, Farnesyl pyrophosphate], the “proliferation of cells suppressed” value [9] is reported as “did not have any effect”.
`COc1cccc2c1C(=O)c1c(O)c3c(c(O)c1C2=O)C[C@@](O)(C(=O)CO)C[C@@H]3O[C@H]1C[C@H](N)[C@H](O)[C@H](C)O1` [doxorubicin] was tested, and the growth of cells [10] was “suppressed the growth” and the growth of cells [11] was “suppressed the growth”.
